This is an account of results in patent publication US20190247376A1, “NICOTINIC ACETYLCHOLINE RECEPTOR AGONIST ATTENUATES ILC2-DEPENDENT AIRWAY HYPERREACTIVITY” (University of Southern California, priority 2016, published 2019).

The subject of one assay is lung ILC2s. As to the kind of experiment: Flow cytometry of proliferation, transcription factor and signalling markers in lung ILC2s. It is filed as cell-based, mouse. The text has this: FIGS. 5A-5F: Cholinergic signal attenuates ILC2 proliferation and GATA3 expression. (FIG. 5A) Mean fluorescence intensity of Ki67 and percentage of Ki67+ cells in isolated lung ILC2s, stimulated with IL-33 in the absence and presence of α7nAChR. (FIG. 5B) Mean fluorescence intensity of GATA3 in isolated lung ILC2s, stimulated with IL-33 in the absence and presence of α7nAChR. One representative experiment of two is shown (n=5; Student's t test *, p<0.05; **, p<0.01; ***p<0.001). […] FACS-purified ILC2s from WT mice challenged with rm-IL-33 with or without α7nAChR agonist as described in FIG. 3A were quantified by NanoString nCounter technology. Data range from −1 to +1 for the most reduced and most increased gene expression, respectively. (FIG. 5D) Expression of NF-κB p65 in isolated lung ILC2s from mice challenged with IL-33 with (dotted line) or without (thick line) α7nAChR agonist. The level of isotype-matched stain control is shown as a gray-filled histogram. (FIG. 5E) Expression of phosphorylated IKKα/β (Ser176/180) in isolated lung ILC2s stimulated with IL-33, with (dotted line) or without (thick line) α7nAChR agonist for 24 hours. The level of isotype-matched stain control is shown as a gray-filled histogram. (FIG. 5F) Mean fluorescence intensity of phosphorylated IKKα/β with or without α7nAChR agonist.
FIGS. 9A-9C: Effect of α7nAChR agonist on some marker expressions by ILC2s. A cohort of BALB/cByJ mice were intranasally challenged with rm-IL-33 (0.5 μg) with or without α7nAChR agonist (125 μg) for three consecutive days. Histogram and MFI of CD25 (FIG. 9A), CD127 (FIG. 9B) and ST2 (FIG. 9C) in isolated lung ILC2s. Data are representative of at least two independent experiments and are presented as means±SEM (n=4; Student's t test *, p<0.05).
Biotinylated anti-mouse lineage (CD3e (145-2C11), CD45R (RA3-3B2), Gr-1 (RB6-8C5), CD11c (N418), CD11b (M1/70), Ter119 (TER-119), NK1.1 (PK136), TCR-β (H57-597), TCR-γδ (GL3), and FcεRIα (MAR-1), Streptavidin-FITC, FITC anti-mouse CD3 (145-2C11), BV510 anti-mouse CD4 (RM4-5), APC-Cy7 anti-mouse CD25 (PC61), PE anti-mouse CD25 (PC61), BV421 anti-mouse CD25 (PC61), BV510 anti-mouse CD90.2 (53-2.1), APC anti-mouse CD127 (A7R34), PE-Cy7 anti-mouse CD127 (A7R34), FITC anti-mouse CD45 (30F-11), PE/Cy7 anti-mouse CD45 (30-F11), PE anti-mouse IL-5 (TRFK5), BV421 anti-mouse GATA3 (16E10A23), 7-AAD Viability staining solution, purchased from BioLegend (San Diego, Calif.). PE anti-mouse ST2 (IL-33R, RMST2-2), PerCP-eFluor710 anti-Mouse ST2 (RMST2-2), Streptavidin APC-eFluor780, Alexa Fluor647 labeled anti-IL-4 (clone 11B11), eFluor 450 anti-mouse CD45 (30F-11), eFluor450 anti-CD44 (clone IM7), eFluor-660 anti-mouse Ki-67 (SollA15), PE/Cy7 anti-mouse IL-13 (eBio13A), anti-mouse BCL-2 (10C4), were purchased from eBioscience. Alexa Fluor 488 anti-mouse p65-NF-κB (532301) was purchased from R&D Systems (dilution 1:50). Alexa Fluor 647 conjugated α-bungarotoxin (Invitrogen, San Diego, Calif.). PE anti-mouse Phospho-IKKα/β (Ser 176/180) (16A6) was purchased from Cell Signaling Technology (dilution 1:50). PE anti-rat α7nAChR (319) was purchased from Santa Cruz Biotechnology (dilution 1:50). This antibody has been used to identify this receptor previously in several studies^69. Lineage marker antibodies were used at the dilution of 1:400, unless mentioned otherwise other antibodies were used at the dilution of 1:200.
Intracellular staining was performed using BD Cytofix/Cytoperm kit (BD Bioscience, San Jose, Calif.) according to the manufacturer's instructions. For analysis of GATA3 and Ki-67 expression, freshly isolated cells were fixed and permeabilized using Fixation/Permeabilization buffer kit (eBioscience) according to the manufacturer's instructions and as previously described^70.
For orientation: Flow cytometry measures light scatter and fluorescence of single cells or particles in a stream.

For the next assay, the target named is α4β2 subtype of nAChR (Homo sapiens, UniProt P17787+P43681). To be noted: cited from earlier work.
Another assay has as its target α7 subtype of nAChR (Homo sapiens, UniProt P36544). The conditions noted are these: cited from earlier work.

Structures are written as SMILES.

Sequence of α4β2 subtype of nAChR (P43681 29-627 limits assumed): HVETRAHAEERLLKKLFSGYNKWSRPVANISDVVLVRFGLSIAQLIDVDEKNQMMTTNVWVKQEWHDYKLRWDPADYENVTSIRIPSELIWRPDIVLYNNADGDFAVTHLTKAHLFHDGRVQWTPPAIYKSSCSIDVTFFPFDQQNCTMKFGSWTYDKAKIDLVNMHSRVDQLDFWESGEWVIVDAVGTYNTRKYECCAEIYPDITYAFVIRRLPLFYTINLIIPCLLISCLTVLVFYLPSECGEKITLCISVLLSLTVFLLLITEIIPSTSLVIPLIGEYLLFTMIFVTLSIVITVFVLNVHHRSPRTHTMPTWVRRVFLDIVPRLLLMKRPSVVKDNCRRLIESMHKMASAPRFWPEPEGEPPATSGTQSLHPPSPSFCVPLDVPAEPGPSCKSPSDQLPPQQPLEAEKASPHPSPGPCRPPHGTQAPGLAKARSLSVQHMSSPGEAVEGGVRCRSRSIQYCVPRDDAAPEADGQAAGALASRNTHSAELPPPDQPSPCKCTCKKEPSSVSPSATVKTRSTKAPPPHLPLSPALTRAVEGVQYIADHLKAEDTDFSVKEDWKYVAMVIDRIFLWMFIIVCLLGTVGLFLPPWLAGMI
Sequence of α4β2 subtype of nAChR (P17787 26-502): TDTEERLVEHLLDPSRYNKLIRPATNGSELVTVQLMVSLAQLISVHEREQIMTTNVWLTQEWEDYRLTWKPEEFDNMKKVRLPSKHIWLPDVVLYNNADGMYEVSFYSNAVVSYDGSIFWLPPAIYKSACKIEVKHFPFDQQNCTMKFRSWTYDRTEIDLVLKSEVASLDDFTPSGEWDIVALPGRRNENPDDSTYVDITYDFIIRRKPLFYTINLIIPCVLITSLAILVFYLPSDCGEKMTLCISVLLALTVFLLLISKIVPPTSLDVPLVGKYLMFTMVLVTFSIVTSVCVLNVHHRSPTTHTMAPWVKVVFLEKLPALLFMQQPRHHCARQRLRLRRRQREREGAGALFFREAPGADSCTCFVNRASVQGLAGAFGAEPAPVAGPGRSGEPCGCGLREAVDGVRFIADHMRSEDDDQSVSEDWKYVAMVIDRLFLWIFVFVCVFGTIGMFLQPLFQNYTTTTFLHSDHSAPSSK
Sequence of α7 subtype of nAChR (P36544 23-502): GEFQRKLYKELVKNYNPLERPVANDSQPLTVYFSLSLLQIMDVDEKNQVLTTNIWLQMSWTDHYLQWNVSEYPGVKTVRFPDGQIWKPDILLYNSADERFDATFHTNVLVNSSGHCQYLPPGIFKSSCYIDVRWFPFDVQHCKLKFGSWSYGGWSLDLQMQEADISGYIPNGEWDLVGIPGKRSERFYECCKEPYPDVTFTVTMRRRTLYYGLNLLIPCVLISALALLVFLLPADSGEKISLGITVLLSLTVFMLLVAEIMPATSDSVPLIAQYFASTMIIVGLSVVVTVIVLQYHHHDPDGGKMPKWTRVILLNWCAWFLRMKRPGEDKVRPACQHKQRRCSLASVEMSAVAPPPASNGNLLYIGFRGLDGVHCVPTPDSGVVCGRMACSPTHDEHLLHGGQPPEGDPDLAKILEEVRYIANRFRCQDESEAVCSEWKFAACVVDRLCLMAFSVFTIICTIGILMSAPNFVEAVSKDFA

For the molecule `COc1ccc(/C=C2\CCCN=C2c2cccnc2)c(OC)c1` [GTS-21, 3-[(3E)-3-[(2,4-dimethoxyphenyl)methylidene]-5,6-dihydro-4H-pyridin-2-yl]pyridine], the “expression of anti-apoptotic factor Bcl-2 on ILC2s” value with lung ILC2s (in vivo data) is reported as “unaffected”. Besides, in the assay on lung ILC2s (isolated lung ILC2s, IL-33), the “GATA-3 expression in ILC2s” value is reported as “significantly inhibits” and the “proliferation rate of pulmonary ILC2s (Ki-67 levels)” value is on record as “significantly decreased”. In addition, the “NF-κB p65 expression in ILC2s” value in the assay on lung ILC2s (lung ILC2s from mice challenged with IL-33) is “reduced”. The “phosphorylated IKKα/β (Ser176/180) expression in ILC2s” value with lung ILC2s (lung ILC2s stimulated with IL-33, 24 hours) is “reduced”. For the same molecule, the “binding to the α4β2 subtype” value at α4β2 subtype of nAChR is given as “binds”. For the same molecule, the “activation of nAChR subtypes” value at α7 subtype of nAChR is given as “activates only the α7 subtype to a significant extent”.
